Biological target: T1, mutant BKCa channel (G803D/N806K) (Rattus norvegicus, UniProt Q62976, G803D/N806K)
T1 construct: expressed in transfected cells
Assay: Cell-based TI+ fluorescence (FluxOR) assay in AD-293 cells
Settings: for TI+-fluorescence enhancement (initial RFU increase): 10 μM, n=4
Protocol: AD-293 cells (Lee et al., 2013), as a modified HEK293 cell for expressing a mutant BKCa channel, were placed in DMEM (Dulbecco's Modified Eagle's medium) supplemented with 10% fetal bovine serum and 1 mg/ml geneticin (Gibco) as an antibiotic. The cells were cultured under a humidified condition of 5% CO2 and 37° C.
AD-293 cells stably expressing the mutant BKCa channel (G803D/N806K) were used for cell-based assays (Lee et al., 2013). Approximately 20,000 cells/well were inoculated on a black-wall assay plate (Corning Incorporated) coated with poly-D-lysine (Sigma-Aldrich), which is 96-well clear-bottom. A FluxOR™ […] (Invitrogen) was used for initial screening of compound libraries, and for further assay of candidate compounds. Experiments were performed according to the manufacturer's following guidelines: growth medium was replaced with 80 μl/well of loading buffer containing FluxOR™ fluorescent dye, and incubation was carried out for 1 hour under a light-free condition. After the incubation, the loading buffer was replaced with 100 μl/well of assay buffer containing various concentrations of compounds of interest, followed by incubation for 20 minutes to 30 minutes. DMSO (1%) was vehicle and the vehicle was used for all test compounds. CTBIC (Cormemis et al. 2005; Lee et al. 2012), previously identified as an activator of the BKCa channel, was used as a positive control. For fluorescence measurements, synergy TM H1 hybrid multi-mode microplate reader (BioTek Instrument Inc., Winnoski, Vt.) and Cen5 software was used in initial screening. For additional assays, Flexstation 3 multi-mode microplate reader (Molecular Devices) and SoftMax®Pro software were used, respectively. A fluorescence signal was obtained at an excitation wavelength of 485 nm and an emission wavelength of 528 nm. Membrane polarization was induced by a stimulus buffer containing thallium ion. The fluorescence signal was measured under two conditions: every 10 seconds for 2 minutes before treating the stimulation buffer and then every 10 seconds for 3 minutes after addition of stimulation buffer for synergy H1, and every 2 seconds for 20 seconds before stimulus buffer treatment, and then every 2 seconds for 160 seconds after adding the stimulus buffer for FlexStation 3.
A fluorescence signal change was measured based on a relative fluorescence unit (RFU) or F/F0 where F0 is ta minimum fluorescence value of each fluorescence trace. To quantitatively compare activation effects of kurarinone and its derivatives, an initial fluorescence increase was calculated using first three points after treatment with the stimulation buffer, and a linear slope was predicted using OriginPro 9.1 (OriginLab Corp., Northampton, Mass.).

T1 sequence (Q62976 whole entry G803D/N806K): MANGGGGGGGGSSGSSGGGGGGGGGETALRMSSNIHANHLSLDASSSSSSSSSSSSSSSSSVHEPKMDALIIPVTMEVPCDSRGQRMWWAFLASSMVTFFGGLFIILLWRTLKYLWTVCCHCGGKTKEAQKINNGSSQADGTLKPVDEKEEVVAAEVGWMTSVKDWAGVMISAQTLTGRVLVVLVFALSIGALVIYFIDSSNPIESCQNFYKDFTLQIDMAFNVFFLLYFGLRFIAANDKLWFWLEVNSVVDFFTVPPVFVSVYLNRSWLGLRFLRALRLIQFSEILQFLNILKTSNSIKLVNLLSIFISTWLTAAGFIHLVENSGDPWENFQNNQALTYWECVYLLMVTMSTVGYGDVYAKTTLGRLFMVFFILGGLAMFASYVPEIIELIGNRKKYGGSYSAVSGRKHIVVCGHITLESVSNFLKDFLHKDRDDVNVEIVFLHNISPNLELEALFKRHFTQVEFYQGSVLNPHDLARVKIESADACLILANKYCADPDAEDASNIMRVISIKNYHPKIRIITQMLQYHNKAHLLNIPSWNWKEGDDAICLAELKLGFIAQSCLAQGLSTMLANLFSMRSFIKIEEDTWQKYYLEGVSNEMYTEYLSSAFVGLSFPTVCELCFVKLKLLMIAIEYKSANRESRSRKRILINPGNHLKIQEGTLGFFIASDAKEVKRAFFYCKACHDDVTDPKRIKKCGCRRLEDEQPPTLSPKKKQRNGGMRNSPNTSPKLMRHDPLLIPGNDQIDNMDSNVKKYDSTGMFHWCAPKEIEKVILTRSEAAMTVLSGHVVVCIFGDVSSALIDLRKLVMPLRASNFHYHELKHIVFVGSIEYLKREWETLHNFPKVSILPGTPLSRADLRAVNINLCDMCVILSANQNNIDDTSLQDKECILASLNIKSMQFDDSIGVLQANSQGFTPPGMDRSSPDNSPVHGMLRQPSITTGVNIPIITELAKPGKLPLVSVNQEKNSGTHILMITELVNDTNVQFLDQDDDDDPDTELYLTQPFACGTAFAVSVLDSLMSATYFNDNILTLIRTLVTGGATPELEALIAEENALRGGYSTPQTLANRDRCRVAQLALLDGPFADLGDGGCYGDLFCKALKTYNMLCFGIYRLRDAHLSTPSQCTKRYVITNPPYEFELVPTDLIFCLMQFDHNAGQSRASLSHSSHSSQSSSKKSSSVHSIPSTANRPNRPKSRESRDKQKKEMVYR

Row | Compound | TI+-fluorescence enhancement (initial RFU increase) | block of kurarinone-induced fluorescence enhancement (co-treatment of 1 μM blocker with kurarinone (5 μM))
1 | C=C(C)[C@H](CCC(C)(C)O)Cc1c(O)cc(OC)c2c1O[C@H](c1ccc(O)cc1O)CC2=O [kurarinol, reference compound] | weaker fluorescence effects | –
2 | O=C1C[C@@H](c2ccc(O)cc2)Oc2cc(O)cc(O)c21 [naringenin] | strong fluorescence increase | –
3 | CC(C)=CCc1c(O)cc(O)c2c1O[C@H](c1ccc(O)cc1O)CC2=O [leachianone G] | strong fluorescence increase | –
4 | CC(C)(O)[C@H]1O[C@H]2CC[C@@]3(C)[C@@](O)(CC[C@H]4Cc5c([nH]c6ccccc56)[C@@]43C)C2=CC1=O [pacilin, reference compound] | – | completely blocked

Source: US11517556B2, “Composition for BKCa channel activation” (GWANGJU INSTITUTE OF SCIENCE AND TECHNOLOGY, priority 2016, dated 2022)
